Data set [1] has as its system eIF2α phosphorylation (ATF-4 5′UTR luciferase reporter). The experiment in a line: surrogate eIF2α phosphorylation dual-luciferase reporter (DLR) assay. In kind it is cell-based. The following applies: F/R luciferase ratio normalized to DMSO wells (F/R=1); for fold induction at 1.25 µM: read-out: Fold stimulation of ATF-4 Surrogate eIF2α @ 1.25 μM; for fold induction at 5 µM: read-out: Fold stimulation of ATF-4 Surrogate eIF2α @ 5 μM.

Data set [2] has as its system human melanoma CRL-2813 cells. The experiment in a line: sulforhodamine B (SRB) cell proliferation assay. In kind it is cell-based. As to conditions: 5 days, read-out: IC50 (concentration that inhibits growth of human melanoma CRL-2813 cells by 50%).
A further data set concerns human melanoma. The following applies: xenograft mice model of human melanoma; cited from earlier work. (In general: Xenograft models place foreign cells or tissue in a host animal.)

Data on four compounds can be found in patent publication US20240076272A1, “Activators of Heme Regulated Inhibitor Kinase (HRI)” (The Brigham and Women`s Hospital, Inc., priority 2019, published 2024).

Molecules are shown by their SMILES. Values joined by “and” are separate entries in the source; they are usually repeats but may differ in a detail not shown here. Identical values can stand only once. Like-named read-outs stand apart in the source and are kept apart here.

In general, melting point refers to the temperature of the solid-liquid transition. As to `N#Cc1cc(NC(=O)N[C@H]2C[C@H](Oc3ccc(C(F)(F)F)cc3)C2)cc(C(F)(F)F)c1` [Compound 1-IV, 1-(3-Cyano-5-(trifluoromethyl)phenyl)-3-(trans-3-(4-(trifluoromethyl)phenoxy)cyclobutyl)urea], the melting point fell in the range of 191.6 to 193 °C. Besides, in data set [1], the “Fold stimulation of ATF-4 Surrogate eIF2α @ 1.25 μM” value is 4.4 ± 1.1 fold, the fold induction at 1.25 µM amounted to 4.4, the “Fold stimulation of ATF-4 Surrogate eIF2α @ 5 μM” value came to 10 ± 1.8 fold and the fold induction at 5 µM was determined as 10. For the same compound, in data set [2] (Homo sapiens, CRL2813, 120 h), the IC50 amounted to 900 nM.

With `N#Cc1cc(NC(=O)N[C@H]2CC[C@H](Oc3ccc(C(F)(F)F)cc3)CC2)cc(C(F)(F)F)c1` [Compound 1-VI, 1-(3-cyano-5-trifluoromethyl) phenyl-3-(trans-4-(4-(trifluoromethyl)phenoxy)cyclohexyl)urea, reference compound], in data set [1], the “Fold stimulation of ATF-4 Surrogate eIF2α @ 1.25 μM” value was 5.7 fold and 5.7 ± 1.4 fold; the “Fold stimulation of ATF-4 Surrogate eIF2α @ 5 μM” value is 13.8 fold and 13.8 ± 1.5 fold. Besides, the IC50 in data set [2] amounted to 350 nM. In addition, in the data set on human melanoma, the in vivo efficacy result is listed as “in vivo efficacy” and the organ toxicity entry was “no apparent organ toxicity”.

Compound `N#Cc1cc(F)cc(NC(=O)N[C@H]2CC[C@H](Oc3ccc(C(F)(F)F)cc3)CC2)c1` [Compound 4-VI, 1-(3-Cyano-5-fluorophenyl)-3-(trans-4-(4-(trifluoromethyl)phenoxy)cyclohexyl)urea] came in with a melting point of 237.8 to 240.8 °C. In data set [1], the fold induction at 1.25 µM was 4.6 ± 0.7 and the fold induction at 5 µM came to 9.3 ± 1.3. Also, the IC50 in data set [2] was 630 ± 300 nM.

On to `N#Cc1ccc(NC(=O)N[C@H]2CC[C@H](Oc3ccc(C(F)(F)F)cc3)CC2)cc1F` [Compound 5-VI, 1-(4-Cyano-3-fluorophenyl)-3-(trans-4-(4-(trifluoromethyl)phenoxy)cyclohexyl)urea], for which, in data set [1], the “Fold stimulation of ATF-4 Surrogate eIF2α @ 1.25 μM” value is reported as 5.5 ± 0.4 fold, the fold induction at 1.25 µM amounted to 5.5 and the fold induction at 5 µM worked out at 10.4 ± 1. In addition, in data set [2] (Homo sapiens, CRL2813, 120 h), the IC50 came to 460 nM.
